Experiments:
Human Astrocytes = experiment: Cholesterol efflux (apoE4 lipidation) assay, BODIPY-cholesterol translocation to apoE4; format: cell-based; details: for EC50: Astrocyte, Human astrocytes, efflux to apoE4
Method: Cholesterol efflux assay in HTS. CCF-STTG1 cells were plated in 384-well plates containing 50 μL/well RPMI supplemented with 10% FBS at a density of 5×10^3 cells/well, using a Multidrop 384 Reagent Dispenser (Thermo Scientific), and incubated for 48 hr. Cells were washed twice with 50 μl PBS using an EL406 Microplate Washer Dispenser (BioTek, Winooski, Vt., USA) before being labeled with 50 μl of 10 μM BODIPY-cholesterol+100 μM cyclodextrin (CD) in RPMI 1640 medium containing 0.2% BSA. The labeling medium was added using in a Washer Dispenser II (GNF, San Diego, Calif., USA). Plates were transferred automatically to a Liconic incubator (Mauren Principality of Liechtenstein) and incubated for 24 h. Subsequently, cells were washed twice as described above to remove external cholesterol. Next, 50 μl of the efflux medium was added, which contained recombinant apoE4 at a concentration of 40 μg/ml in transparent RPMI 1640 (no phenol red), again using Washer Dispenser II (GNF, San Diego, Calif., USA). The positive control contained the ABCA1 activator, CS-6253 (120 μg/ml) in addition to the acceptor (apoE4). After 7 hr of efflux, the medium was transferred to new plates, using the Bravo Automated Liquid Handling system (Agilent, Santa Clara, Calif., USA). Fluorescence polarization (FP) and fluorescence intensity (FI) of the medium were measured in a PheraStar FS plate reader (BMG Labtech, Ortenberg, Germany).
The apoE4 lipidation Assay is based on measurements of the ability of astrocytes to translocate fluorescently labelled cholesterol to recombinant non lipidated apoE4 and on the extent to which this effect is enhanced by treatment with each of the screened compounds (FIG. 2, 3). This assay is an adaptation of previous studies of cholesterol translocation from labelled astrocytes to external acceptors such as apoE4 [16], except that in order to differentiate between gene expression related effects and direct biochemical effects of the hits on ABCA1, the incubations of the HTS with the cells was limited to 8 hours. The extent to which the cells secret the labelled cholesterol and transfer it to non-lipidated apoE4 was determined by regular fluorescence as well as by fluorescence polarization microscopy. The latter technique in this context is used due to its sensitivity to particle size which decreases the background signal by differentiating between free and particle bound released cholesterol.
The assay was characterized biochemically and it was shown that translocation of labelled cholesterol to apoE4 is time and concentration dependent (FIG. 4) and was increased by the positive control ABCA1 agonistic 26mer peptide CS-6253 [4] (FIG. 5). The assay was used for high throughput screening (HTS) and selection of positive hits. 50,000 compounds from commercially available libraries were screened utilizing the double criteria of a signal greater than 3 standard deviations from the mean of all of the screened compounds, and being similar or greater than the apoE4 lipidation driven by the ABCA1 agonistic peptide CS-6253. Additional criteria included the tier drug ability value with tier 1 being best and tier 3 being least suitable, as well as a hydrophobicity value of 2<log P<5 value. This yielded 14 hits, designated Compounds #1-#14 (FIG. 6).

Rodent Astrocytes = experiment: In situ Aβ plaque digestion by apoE4 astrocytes (orthogonal assay); format: cell-based
Method: FIG. 7: Schematic representation of assay measuring in situ A$ plaque degradation by apoE3 and apoE4 astrocytes. The assay is designed to measure the ability of astrocytes to digest senile plaques from brain slides of APP mice, which is impaired in apoE4 expressing astrocytes.
FIG. 9: Activity of test compounds (HTS hits) in the plaque digestion assay. Positive control is CS-6253 (25 μg/ml). Test compound concentration is 50 μM.
In situ Aβ plaque degradation by apoE3 and apoE4 astrocytes. This assay is based on measurement of the ability of the astrocytes to clear Aβ plaques following their co-incubation with brain sections of 5×FAD mice, which contain Aβ plaques. Accordingly, 20 μm coronal frozen brain sections were prepared from 9-13-month-old 5×FAD mice using cryostat and placed on glass slides, 3-4 consecutive sections in each slide. The slides were kept at −80° C. until used. At the beginning of the experiment, the slices were incubated for 48 hr at 37° C. with apoE3 and apoE4 astrocytes (10^5 cells in 100 μl medium per slice) in the presence of 50 μM, or otherwise indicated concentrations, of the HTS hits. The slides were gently placed in round petri dishes with thick wet paper, surrounding the slides. PapPen was used to draw liquid repellent borders of the sections to avoid spillage of coating out of the slides. The slides were gently washed of all containing remains by placing them in PBS for 10 minutes, and were then fixated with 4% PFA for 10 minutes, followed by 0.1% Triton solution for 10 minutes. The slides were then incubated with blocking solution (8% Horse Serum, 0.3% Triton, 1 gr/ml BSA, 0.02% Sodium Azide in PBS) for 30 minutes after which they were immunohistochemically stained with primary anti-PAmyloid (6E10) antibody at a dilution of 1:750 in blocking solution for 1 hr at room temperature. This was then followed by washing (×5 with PBST) and incubation with the secondary antibody (Alexa Fluor® 488 donkey α-mouse IgG, A-21202 at dilution of 1:250 at room temperature for 45 minutes. Nuclei were stained with DAPI (Vektashield, Burlingame, Calif.; H-1200). Analysis of the Aβ plaque burden was performed as percentage of the area covered in plaques using the ImageJ software.
(i) Orthogonal assay which monitors the extent to which the hits can reverse the impaired ability of apoE4 astrocytes to digest Aβ senile plaques in vitro. The principle of this orthogonal assay is presented in FIGS. 7 & 8 [17], whereas the activity of the HTS hits in this assay is presented in FIG. 9.

[1] = tested on: apoE4 astrocytic cell line; experiment: Cellular viability / cytotoxicity of the hits; format: cell-based, Rodent; details: 50 μM
Method: FIG. 10: Effects of test compounds (HTS hits) on cellular viability. Experiments were performed on apoE4 astrocytic cell line in the presence of 50 μM of the indicated compounds. Viability was measured microscopically and by measurements of total cellular protein. (ii) Measurements of cytotoxicity of the hits.

Row | SMILES | EC50 (Human Astrocytes; Table 2) [µM] | EC50 (Human Astrocytes; Table 4) [µM] | Plaque digestion assay (50 μM) Rodent Astrocytes (Rodent Astrocytes; Table 2) [%] | Plaque digestion assay (50 μM) Rodent Astrocytes (Rodent Astrocytes; Table 4) [%] | Viability Rodent Astrocytes ([1]; Table 2) | Viability Rodent Astrocytes ([1]; Table 4) | Stimulation of cholesterol efflux from human astrocytes to apoE4 (Human Astrocytes; test compounds 50 μM)
1 | C[C@]12CC[C@@H](O)CC1CCC1C2CC[C@](C)(C(=O)O)C1/C=C1/Nc2ccccc2C1=O (stereo partly shown) [Hit #12] | > 44.8 | > 44.8 | 105 | 105 | Normal | Normal | 
2 | CC(C)(C)C(=O)COC(=O)c1ccccc1SCc1cc(-c2ccco2)on1 [Hit #4] | 28.3 | 28.3 | 62 | 62 | Normal | Normal | 
3 | Cc1nn(CC(=O)c2ccc(Br)s2)c(C)c1[N+](=O)[O-] [Hit #3] | > 44.8 | > 44.8 | 78 | 78 | Normal | Normal | 
4 | O=[N+]([O-])c1ccc(N2CCCCC2)c2nonc12 [Hit #7] | 8.56 | 8.56 | 93 | 93 | Normal | Normal | activates cholesterol efflux
5 | CSC(SC)=C1CC/C(=C/c2ccc(N(C)C)cc2)C1=O [Hit #14] | > 44.8 | > 44.8 | 134 | 134 | Normal | Normal | 

Reference: patent US20230103965A1, “NOVEL ACTIVATORS OF THE LIPIDATING TRANSPORTER ATP BINDING CASSETTE PROTEIN TYPE 1 (AB-CA1) AND THERAPEUTIC USES THEREOF” (RAMOT AT TEL-AVIV UNIVERSITY LTD., priority 2020, published 2023)
